# Measured values from PubChem BioAssay AID1963425 (Molecular Pharmacology Branch, DTP, NCI, 2024).
# System: 323965-272-R-J2-PDC complex spheroid growth, % test/control
# Experiment: Anticancer human tumor 323965-272-R-J2-PDC patient-derived pancreatic carcinoma cell line growth inhibition [Asc]
# Conditions: for IC50: curve of first compound; for viability, T/C: stronger effect = lower value
# In short: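 Concentration series start at each agent's clinical Cmax, or at 10 microM when none is established, and drop in half-log steps; agents are applied alone or together to complex spheroids built with HUVEC and hMSC.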
# 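Also: compound exposure lasted 7 days starting three days after spheroid seeding.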
# 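For viability, T/C in this document: 100% = DMSO vehicle control wells with viability set relative to vehicle.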
structure (smiles),measurement,setting,value
NC(=O)C(=Cn1cnc(-c2cc(C(F)(F)F)cc(C(F)(F)F)c2)n1)c1cncnc1 + CCN1C(C(=O)NC23CCC(C(=O)O)(CC2)CC3)C(c2cccc(Cl)c2F)C2(C(=O)Nc3cc(Cl)ccc32)C12CCCCC2,IC50,second compound 0.00949 µM,> 300 nM
same,IC50,second compound 0.03 µM,> 300 nM
same,IC50,second compound 0.0949 µM,> 300 nM
same,IC50,second compound 0.3 µM,> 300 nM
same,IC50,second compound 0.949 µM,> 300 nM
same,IC50,second compound 3 µM,> 300 nM
same,"viability, T/C","second compound 0.00949 µM, first compound 0.000949 µM",108%
same,"viability, T/C","second compound 0.00949 µM, first compound 0.003 µM",100%
same,"viability, T/C","second compound 0.00949 µM, first compound 0.00949 µM",98%
same,"viability, T/C","second compound 0.00949 µM, first compound 0.03 µM",105%
same,"viability, T/C","second compound 0.00949 µM, first compound 0.0949 µM",86.3%
same,"viability, T/C","second compound 0.00949 µM, first compound 0.3 µM",57.9%
same,"viability, T/C","second compound 0.03 µM, first compound 0.000949 µM",109%
same,"viability, T/C","second compound 0.03 µM, first compound 0.003 µM",105%
same,"viability, T/C","second compound 0.03 µM, first compound 0.00949 µM",96.8%
same,"viability, T/C","second compound 0.03 µM, first compound 0.03 µM",99.8%
same,"viability, T/C","second compound 0.03 µM, first compound 0.0949 µM",90%
same,"viability, T/C","second compound 0.03 µM, first compound 0.3 µM",68%
same,"viability, T/C","second compound 0.0949 µM, first compound 0.000949 µM",111%
same,"viability, T/C","second compound 0.0949 µM, first compound 0.003 µM",101%
same,"viability, T/C","second compound 0.0949 µM, first compound 0.00949 µM",109%
same,"viability, T/C","second compound 0.0949 µM, first compound 0.03 µM",100%
same,"viability, T/C","second compound 0.0949 µM, first compound 0.0949 µM",91.7%
same,"viability, T/C","second compound 0.0949 µM, first compound 0.3 µM",55.5%
same,"viability, T/C","second compound 0.3 µM, first compound 0.000949 µM",101%
same,"viability, T/C","second compound 0.3 µM, first compound 0.003 µM",103%
same,"viability, T/C","second compound 0.3 µM, first compound 0.00949 µM",101%
same,"viability, T/C","second compound 0.3 µM, first compound 0.03 µM",99%
same,"viability, T/C","second compound 0.3 µM, first compound 0.0949 µM",88.7%
same,"viability, T/C","second compound 0.3 µM, first compound 0.3 µM",55.2%
same,"viability, T/C","second compound 0.949 µM, first compound 0.000949 µM",103%
same,"viability, T/C","second compound 0.949 µM, first compound 0.003 µM",93.9%
same,"viability, T/C","second compound 0.949 µM, first compound 0.00949 µM",84.3%
same,"viability, T/C","second compound 0.949 µM, first compound 0.03 µM",87.7%
same,"viability, T/C","second compound 0.949 µM, first compound 0.0949 µM",85.7%
same,"viability, T/C","second compound 0.949 µM, first compound 0.3 µM",53.6%
same,"viability, T/C","second compound 3 µM, first compound 0.000949 µM",94%
same,"viability, T/C","second compound 3 µM, first compound 0.003 µM",101%
same,"viability, T/C","second compound 3 µM, first compound 0.00949 µM",89.5%
same,"viability, T/C","second compound 3 µM, first compound 0.03 µM",85.2%
same,"viability, T/C","second compound 3 µM, first compound 0.0949 µM",82.3%
same,"viability, T/C","second compound 3 µM, first compound 0.3 µM",53%
NC1CCC(NC2CC2c2ccccc2)CC1 (centres undefined) + CCN1C(C(=O)NC23CCC(C(=O)O)(CC2)CC3)C(c2cccc(Cl)c2F)C2(C(=O)Nc3cc(Cl)ccc32)C12CCCCC2,IC50,second compound 0.00949 µM,> 100 nM
same,IC50,second compound 0.03 µM,> 100 nM
same,IC50,second compound 0.0949 µM,> 100 nM
same,IC50,second compound 0.3 µM,> 100 nM
same,IC50,second compound 0.949 µM,> 100 nM
same,IC50,second compound 3 µM,> 100 nM
same,"viability, T/C","second compound 0.00949 µM, first compound 0.000316 µM",98.9%
same,"viability, T/C","second compound 0.00949 µM, first compound 0.001 µM",94.2%
same,"viability, T/C","second compound 0.00949 µM, first compound 0.00316 µM",94.8%
same,"viability, T/C","second compound 0.00949 µM, first compound 0.01 µM",97.5%
same,"viability, T/C","second compound 0.00949 µM, first compound 0.0316 µM",98.2%
same,"viability, T/C","second compound 0.00949 µM, first compound 0.1 µM",88.2%
same,"viability, T/C","second compound 0.03 µM, first compound 0.000316 µM",97.3%
same,"viability, T/C","second compound 0.03 µM, first compound 0.001 µM",99.5%
same,"viability, T/C","second compound 0.03 µM, first compound 0.00316 µM",103%
same,"viability, T/C","second compound 0.03 µM, first compound 0.01 µM",102%
same,"viability, T/C","second compound 0.03 µM, first compound 0.0316 µM",97.9%
same,"viability, T/C","second compound 0.03 µM, first compound 0.1 µM",92.8%
same,"viability, T/C","second compound 0.0949 µM, first compound 0.000316 µM",116%
same,"viability, T/C","second compound 0.0949 µM, first compound 0.001 µM",91%
same,"viability, T/C","second compound 0.0949 µM, first compound 0.00316 µM",104%
same,"viability, T/C","second compound 0.0949 µM, first compound 0.01 µM",99.9%
same,"viability, T/C","second compound 0.0949 µM, first compound 0.0316 µM",101%
same,"viability, T/C","second compound 0.0949 µM, first compound 0.1 µM",88.9%
same,"viability, T/C","second compound 0.3 µM, first compound 0.000316 µM",99.6%
same,"viability, T/C","second compound 0.3 µM, first compound 0.001 µM",94.2%
same,"viability, T/C","second compound 0.3 µM, first compound 0.00316 µM",101%
same,"viability, T/C","second compound 0.3 µM, first compound 0.01 µM",96.8%
same,"viability, T/C","second compound 0.3 µM, first compound 0.0316 µM",99.7%
same,"viability, T/C","second compound 0.3 µM, first compound 0.1 µM",88.3%
same,"viability, T/C","second compound 0.949 µM, first compound 0.000316 µM",102%
same,"viability, T/C","second compound 0.949 µM, first compound 0.001 µM",95.5%
same,"viability, T/C","second compound 0.949 µM, first compound 0.00316 µM",94.8%
same,"viability, T/C","second compound 0.949 µM, first compound 0.01 µM",92.5%
same,"viability, T/C","second compound 0.949 µM, first compound 0.0316 µM",106%
same,"viability, T/C","second compound 0.949 µM, first compound 0.1 µM",96%
same,"viability, T/C","second compound 3 µM, first compound 0.000316 µM",98.6%
same,"viability, T/C","second compound 3 µM, first compound 0.001 µM",88.3%
same,"viability, T/C","second compound 3 µM, first compound 0.00316 µM",90.2%
same,"viability, T/C","second compound 3 µM, first compound 0.01 µM",97.2%
same,"viability, T/C","second compound 3 µM, first compound 0.0316 µM",96.4%
same,"viability, T/C","second compound 3 µM, first compound 0.1 µM",87.7%
